According to patent US8759384B2, “Oxo-imidazolyl compounds” (priority 2008, dated 2014):

Tests used:
[1] = tested on: Staphylococcus aureus MRSA; experiment: microbe, parasite or virus in culture; format: cell-based; conditions: Conc. 3 μM, read-out: Inhibitive activity MRSA (% inhibition of growth)
B. anthracis ΔSterne = experiment: microbe, parasite or virus in culture; format: cell-based; conditions: Bacillus anthracis; Conc. 3 μM; read-out: Inhibitive activity Anthracis (% inhibition of growth)

O=C(O)C(Cc1ccccc1)N1C(=O)/C(=C\c2ccc(-c3ccc(Cl)c(Cl)c3)o2)NC1=S (centres unmarked) [EX. 6, 2-(4-((5-(3,4-Dichlorophenyl)furan-2-yl)methylene)-5-oxo-2-thioxoimidazolidin-1-yl)-3-phenylpropanoic acid]
inhibition at 3 µM [1]: -3.72%

O=C(O)C(Cc1ccccc1)N1C(=O)/C(=C\c2ccc(-c3ccc(Br)cc3)s2)NC1=S (centres unmarked) [EX. 7, 2-(4-((5-(4-Bromophenyl)thiophen-2-yl)methylene)-5-oxo-2-thioxoimidazolidin-1-yl)-3-phenylpropanoic acid]
inhibition at 3 µM (B. anthracis ΔSterne): 67.9%
